Legend:
[1] = tested on: HSC-4 oral squamous cell carcinoma cells; assay: Cytotoxicity assay (MTT), HSC-4; type: cell-based; details: Homo sapiens, tumor cell line, 48 h
Experimental: (§1) The cytotoxicity of the compounds 4a - 4j were assayed towards human tumor cell lines [gingival carcinoma (Ca9–22), oral squamous cell carcinoma (HSC-2)] and human normal oral cells [gingival fibroblasts (HGF), and periodontal ligament fibroblasts (HPLF)] as described [42, 54 – 56]. In brief, all cells were cultured in Dulbecco’s modified eagle’s medium (DMEM) supplemented with 10% fetal bovine serum (FBS). The following concentrations of the compounds in dimethylsulfoxide (DMSO) were added to the medium and incubated at 37 ° C for 48 h: 4a - 4j ([…]), melphalan (3.12, 6.25, 12.5, 25. 50, 100, 200 and […]) and 5-FU ([…]). The media that contained the same concentration of DMSO ([…], 0.03125, 0.0625, 0.125, 0.25, 0.5 or 1%) were used as controls since DMSO above 0.25% is cytotoxic. The viable cell numbers were determined by the 3-(4,5-dimethylthiazol-2-yl)-2,5-diphenyltetrazolium bromide (MTT) assay. The CC50 values were determined from dose-response curves.
(§2) Cytotoxicity’s of the compounds 4a - 4j were evaluated towards Ca9–22, HSC-2, HSC-3, and HSC-4 human oral squamous cell carcinoma cell lines as tumor cell lines and HGF, HPLF, and HPC human normal oral cells as nontumor cells (Table 1) according to the procedure in the literature [42, 54 – 56]. 5-Fluorouracil (5-FU) was used as a reference anticancer drug.

[2] = tested on: human oral squamous cell carcinoma cell lines (Ca9-22, HSC-2, HSC-3, HSC-4); assay: Cytotoxicity assay, all tumor cell lines (mean, TS1, PSE1); type: cell-based; details: mean of Ca9-22, HSC-2, HSC-3, HSC-4, read-out: Tumor cell lines CC50 mean (B)
Experimental: as §1, §2
The tumor selectivity (TS1 and TS2) of each compound was calculated as described in previously reported literature procedures and these figures are presented in Table 1. Based on the TS1 values, 4f and 4g which have 2,5 and 2,4-dimethoxy substituents had the highest TS1 values in a series with 22.4 and 22.2, respectively. On the other hand, the 3,4,5-trimethoxy substituted compound 4i (TS1: 19.6) had the […] TS1 value. […] As expected, they were in accordance with the literature findings [16 – 18]. The second calculation (TS2) considered the differences of sensitivity between the malignant (Ca9–22) and non-malignant (HGF) cells derived from the same tissue (gingiva). According to TS2 values obtained, 4i (3,4,5-trimethoxy) had the highest TS2 value of 43.
The desired properties for a lead compound are being both markedly cytotoxic and selectively toxic for tumors. PSE1 reflects general cytotoxicity and selectivity potency of the compound towards all cells used, whereas PSE2 seems more specified since it was considered for the same origin cells. When the compounds tested towards OSCC lines were considered in terms of PSE2 values of the compounds. The best poly-methoxylated compounds were 4i (with 3,4,5-trimethoxy, PSE2 = 461.5) ˃ 4f (with 2,5-dimethoxy, PSE2 = 425.1) ˃ 4g (with 2,4-dimethoxy, PSE2 = 405.4) while the best mono-methoxylated derivative was 4b (with 4-methoxy, PSE2 = 205).

[3] = tested on: gingival carcinoma (Ca9-22) cells; assay: Cytotoxicity assay (MTT), Ca9-22; type: cell-based, human; details: for CC50: Homo sapiens, Ca9-22, tumor cell line, 48 h, MTT; for times of potency compared to 5-FU, Ca9-22: cytotoxicity relative to 5-FU; for PSE2 times more potent than 5-FU: PSE2 relative to reference drug 5-FU
Experimental: as §1, §2

[4] = tested on: oral squamous cell carcinoma (HSC-2) cells; assay: Cytotoxicity assay (MTT), HSC-2; type: cell-based, human; details: for CC50: Homo sapiens, HSC-2, tumor cell line, 48 h, MTT; for times of potency compared to 5-FU, HSC-2: cytotoxicity relative to 5-FU
Experimental: as §1, §2

hCA I = hCA I (Homo sapiens, UniProt P00915); assay: Carbonic anhydrase enzyme assay (esterase activity), hCA I; type: biochemical; details: for Ki: Lineweaver-Burk plot; for IC50: esterase activity, p-nitrophenyl acetate
hCA I, sequence (P00915 whole entry, canonical isoform): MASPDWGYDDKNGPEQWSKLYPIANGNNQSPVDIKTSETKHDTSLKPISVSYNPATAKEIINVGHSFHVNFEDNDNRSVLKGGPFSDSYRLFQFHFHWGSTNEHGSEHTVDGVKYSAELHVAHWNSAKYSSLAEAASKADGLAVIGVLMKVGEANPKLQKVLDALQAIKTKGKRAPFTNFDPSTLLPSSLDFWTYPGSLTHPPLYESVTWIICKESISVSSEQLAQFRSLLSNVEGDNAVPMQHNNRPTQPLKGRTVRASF
Text: (§3) Human CA isoforms (hCAI and hCAII) were purified by the sepharose - 4B – L - tyrosine sulfanilamide affinity segregation method as reported. […] Inhibitory effects of the compounds were investigated by measuring the esterase activity according to Verpoorte et al. as described in previous studies [61 – 63].
(§4) Vmax, maximal velocity; VImax, maximal velocity of inhibitor; I, inhibitor; Ki, the inhibitor constant.

[5] = tested on: HSC-3 oral squamous cell carcinoma cells; assay: Cytotoxicity assay (MTT), HSC-3; type: cell-based; details: Homo sapiens, tumor cell line, 48 h
Experimental: as §1, §2

[6] = Cytotoxicity assay (MTT), HPLF normal cells; type: cell-based; details: human, HPLF periodontal ligament fibroblasts (normal oral cells), non-tumor cells
Experimental: as §1, §2

hCA II = hCA II (Homo sapiens, UniProt P00918); assay: Carbonic anhydrase enzyme assay (esterase activity), hCA II; type: biochemical; details: for Ki: Lineweaver-Burk plot; for IC50: esterase activity, p-nitrophenyl acetate
Text: as §3, §4

[7] = Cytotoxicity assay (MTT), HPC normal cells; type: cell-based; details: human, HPC normal oral cells, non-tumor cells
Experimental: as §1, §2

[8] = Cytotoxicity assay (MTT), HGF normal cells; type: cell-based; details: human, HGF gingival fibroblasts (normal oral cells), non-tumor cells
Experimental: as §1, §2

[9] = Cytotoxicity assay, all non-tumor cells (mean); type: cell-based; details: human, normal oral cells HGF, HPLF and HPC (mean of the three), read-out: Non-tumor cell lines CC50 mean (D)
Experimental: as §1, §2

| SMILES | CC50 [1] [µM] | melting point [°C] | CC50 [2] [µM] | CC50 [3] [µM] | times of potency compared to 5-FU, Ca9-22 [3] | CC50 [4] [µM] | times of potency compared to 5-FU, HSC-2 [4] | Ki (hCA I) [µM] | IC50 (hCA I) [µM] | CC50 [5] [µM] | CC50 at 48 h [6] [µM] | Ki (hCA II) [µM] | IC50 (hCA II) [µM] | CC50 at 48 h [7] [µM] | CC50 at 48 h [8] [µM] | CC50 at 48 h [9] [µM] | PSE2 times more potent than 5-FU [3] |
| --- | --- | --- | --- | --- | --- | --- | --- | --- | --- | --- | --- | --- | --- | --- | --- | --- | --- |
| NS(=O)(=O)c1ccc(N2N=C(c3ccccc3)CC2c2ccc3c(c2)OCO3)cc1 (centres unmarked) [4a, 4-[5-(1,3-Benzodioxol-5-yl)-3-phenyl-4,5-dihydro-1H-pyrazol-1 yl]benzenesulphonamide] | 26.1 | 196 to 198 | 22.5 | 17.1 | 1.3 | 26.1 | 10 | 59.8 ± 3 | 30.1 | 20.8 | 37.6 | 8.9 ± 2.3 | 10.7 | 63.2 | 56.3 | 52.4 | – |
| COc1ccc(C2=NN(c3ccc(S(N)(=O)=O)cc3)C(c3ccc4c(c3)OCO4)C2)cc1 (centres unmarked) [4b, 4-[5-(1,3-Benzodioxol-5-yl)-3-(4-methoxyphenyl)-4,5-dihydro-1H-pyrazol-1-yl]benzenesulphonamide] | 18.2 | 171 to 173 | 16.6 | 14 | 1.6 | 18 | 14.5 | 31.9 ± 1.9 | 11.3 | 16.2 | 400 | 11.5 ± 4.6 | 16.3 | 98.7 | 400 | 300 | – |
| COc1cccc(C2=NN(c3ccc(S(N)(=O)=O)cc3)C(c3ccc4c(c3)OCO4)C2)c1 (centres unmarked) [4c, 4-[5-(1,3-Benzodioxol-5-yl)-3-(3-methoxyphenyl)-4,5-dihydro-1H-pyrazol-1-yl]benzenesulphonamide] | 18 | 184 to 186 | 17.4 | 19.5 | – | 18.3 | 14.3 | 21.5 ± 1.5 | 6.6 | 13.9 | 178 | 6.9 ± 1.5 | 9.2 | 140 | 38.2 | 119 | – |
| COc1ccccc1C1=NN(c2ccc(S(N)(=O)=O)cc2)C(c2ccc3c(c2)OCO3)C1 (centres unmarked) [4d, 4-[5-(1,3-Benzodioxol-5-yl)-3-(2-methoxyphenyl)-4,5-dihydro-1H-pyrazol-1-yl]benzenesulphonamide] | 14.9 | 183 to 185 | 14.6 | 13.8 | 1.6 | 17.1 | 15.3 | 28.5 ± 1.6 | 12.8 | 12.4 | 39.7 | 8.9 ± 1.9 | 10.7 | 37 | 36.9 | 37.8 | – |
| COc1ccc(C2=NN(c3ccc(S(N)(=O)=O)cc3)C(c3ccc4c(c3)OCO4)C2)cc1OC (centres unmarked) [4e, 4-[5-(1,3-Benzodioxol-5-yl)-3-(3,4-dimethoxyphenyl)-4,5-dihydro-1H-pyrazol-1-yl]benzenesulphonamide] | 400 | 243 to 245 | 227 | – | – | 400 | – | 25.5 ± 1.6 | 10.2 | 61 | 400 | 9.3 ± 0.6 | 15.2 | 400 | 400 | 400 | – |
| COc1ccc(OC)c(C2=NN(c3ccc(S(N)(=O)=O)cc3)C(c3ccc4c(c3)OCO4)C2)c1 (centres unmarked) [4f, 4-[5-(1,3-Benzodioxol-5-yl)-3-(2,5-dimethoxyphenyl)-4,5-dihydro-1H-pyrazol-1-yl]benzenesulphonamide] | 12 | 144 to 146 | 12.2 | 9.7 | 2.3 | 15.7 | 16.6 | 27.8 ± 10.1 | 14 | 11.5 | 276 | 12.3 ± 2.8 | 16.3 | 147 | 400 | 274 | 2.1 |
| COc1ccc(C2=NN(c3ccc(S(N)(=O)=O)cc3)C(c3ccc4c(c3)OCO4)C2)c(OC)c1 (centres unmarked) [4g, 4-[5-(1,3-Benzodioxol-5-yl)-3-(2,4-dimethoxyphenyl)-4,5-dihydro-1H-pyrazol-1-yl]benzenesulphonamide] | 12.7 | 134 to 136 | 11.5 | 9.9 | 2.2 | 13.5 | 19.3 | 12.7 ± 1.7 | 6.7 | 9.8 | 234 | 7.8 ± 2.2 | 11.3 | 131 | 400 | 255 | 2.0 |
| O=c1[nH]cc(F)c(=O)[nH]1 [5-FU, 5-Fluorouracil, reference compound] | 12.5 | – | 75.8 | 22 | – | 261 | – | – | – | 7.8 | 1000 | – | – | 958 | 1000 | 986 | – |

Reference: publication PMC8326471, “Synthesis and biological evaluation of new pyrazolebenzene-sulphonamides as potential anticancer agents and hCA I and II inhibitors” (Turkish Journal of Chemistry, 2021)
